Experimental data from patent US20220096664A1, “STABILIZED FORMULATIONS CONTAINING IODINATED CONTRAST AGENTS AND CYCLODEXTRINS” (Verrow Pharmaceuticals, Inc., priority 2012, published 2022).
Like-named read-outs stand apart in the source and are kept apart here.

Format: physicochemical
Conditions: for Iodide formed: 50 mM agent, 10 mM TRIS, pH 7.4, autoclaved then UV 18 h
Description: The lamps were switched on and the solutions irradiated for 18 to 24 hours for the ultraviolet (UV) lamps or 72 to 90 hours for the visible (VIS) light lamps. At the end of the selected irradiation time, the cuvettes were removed from the photolysis chamber and mixed by inversion 2-times. The caps were then removed and 40 microliter aliquots taken and diluted with 1 mL of an aqueous solution containing ˜0.9 mg/mL sodium thiosulfate. The thiosulfate solution converted any I2, IO3^−, and I3^− present in the solution tor such that total iodine species could be determined in one assay.
The diluted solutions were assayed by high pressure liquid chromatography (HPLC) using a 4.6×250 mm, C-18, 5 micron particle size, reversed phase column with detection at 280 nm for the contrast agent and 230 nm for the thiosulfate and the iodide ion (r). A mobile phase of 30:70 methanol:aqueous buffer (50 mM KH2PO4+7 mL/L 40% tetrabutyl ammonium hydroxide) at 0.75 mL/min was used for elution. Injection volume was 20 microliters. External standards were prepared containing each contrast agent, potassium iodide, and sodium thiosulfate solution and analyzed along with the irradiated samples. The results were reported as weight percentage iodide formed (mg iodide/mg contrast agent times 100).
Aqueous solutions were prepared containing 50 mM iodinated contrast agent, 10 mM tromethamine HCl buffer (TRIS), with and without sulfobutylether beta-cyclodextrin with an average degree of substitution-7 (SBE7-β-CD), or 2-hydroxypropyl beta-cyclodextrin with an average degree of substitution of ˜6.3 (HP6.3-β-CD) or ˜4.3 (HP4.3-β-CD). The iohexol solution was prepared by dissolving solid iohexol powder while the other solutions were prepared by diluting commercial formulated products and adding sufficient TRIS buffer to reach 10 mM. The pH of the solutions was adjusted to 7.4 with 0.1N hydrochloric acid.
Aliquots of the solutions were irradiated with visible light for 72 hours (0.52 million lux hours). Other aliquots were autoclaved for 20 minutes at 121° C., cooled to room temperature and then irradiated with ultraviolet light for 18 hours (119 watt hours/m2). The solutions were then processed, analyzed and reported as in Example 2, except that the chromatographic peaks of the contrast agents were evaluated at 300 nm for both samples and standards.
Aqueous solutions were prepared containing 50 mM iohexol, 0, 2.5, 5, 7.5, or 10 mM tromethamine HCl (TRIS) buffer, with and without 2.5 mM sulfobutylether beta-cyclodextrin with an average degree of substitution-7 (SBE7-β-CD). The pH of the solutions was adjusted to 7.4 with 0.1N hydrochloric acid and the solutions were transferred to glass vials. The vials were stoppered, crimp-capped and autoclaved for 20 minutes at 121° C. The pH of the autoclaved solutions was measured after the solutions were at room temperature.
Aliquots of the autoclaved solutions were irradiated with visible light for 72 hours (0.52 million lux hours) and other aliquots irradiated with ultraviolet light for 18 hours (119 watt hours/m2). The solutions were then processed, analyzed and reported as in Example 2, except that the chromatographic peak of the iohexol was evaluated at 300 nm for both samples and standards.
Aqueous formulations were prepared containing iodinated contrast agents at concentrations used commercially in medical procedures. Sulfobutylether-cyclodextrin, sodium salt, average degree of substitution ˜7 (SBE7CD) was added at varying agent:CD mole ratios. The formulations were placed in glass vials, sealed with rubber stoppers and aluminum crimps, and autoclaved at 121° C. for 20 minutes. […]

CC(=O)N(CC(O)CN(C(C)=O)c1c(I)c(C(=O)NCC(O)CO)c(I)c(C(=O)NCC(O)CO)c1I)c1c(I)c(C(=O)NCC(O)CO)c(I)c(C(=O)NCC(O)CO)c1I (stereo not shown) [Iodixanol, iodixanol]
Iodide formed (agent:SBE7-β-CD 1:0.1): 0.220 wt % | Iodide formed (no SCD (1:0)): 0.292 wt % | Iodide Formed, UV (Iodixanol 270 mg I/mL, pH 7.4, agent:SBE7CD 1:0.05, autoclaved then UV 24 h): 0.0791 wt % | Iodide Formed, VIS (Iodixanol 270 mg I/mL, pH 7.4, agent:SBE7CD 1:0.05, autoclaved then VIS 72 h): 0.0288 wt % | Iodide Formed, UV (Iodixanol 270 mg I/mL, pH 7.4, no SCD (1:0), autoclaved then UV 24 h): 0.0845 wt % | Iodide Formed, VIS (Iodixanol 270 mg I/mL, pH 7.4, no SCD (1:0), autoclaved then VIS 72 h): 0.0325 wt % | Iodide Formed, UV (Iodixanol 320 mg I/mL, pH 7.4, agent:SBE7CD 1:0.05, autoclaved then UV 24 h): 0.0743 wt % | Iodide Formed, VIS (Iodixanol 320 mg I/mL, pH 7.4, agent:SBE7CD 1:0.05, autoclaved then VIS 72 h): 0.0251 wt % | Iodide Formed, UV (Iodixanol 320 mg I/mL, pH 7.4, no SCD (1:0), autoclaved then UV 24 h): 0.0751 wt % | Iodide Formed, VIS (Iodixanol 320 mg I/mL, pH 7.4, no SCD (1:0), autoclaved then VIS 72 h): 0.0265 wt %

COCC(=O)Nc1c(I)c(C(=O)NCC(O)CO)c(I)c(C(=O)N(C)CC(O)CO)c1I (stereo not shown) [Iopromide, iopromide]
Iodide formed (agent:SBE7-β-CD 1:0.1): 0.330 wt % | Iodide formed (no SCD (1:0)): 0.487 wt % | Iodide Formed, UV (Iopromide 150 mg I/mL, pH 7.4, agent:SBE7CD 1:0.05, autoclaved then UV 24 h): 0.110 wt % | Iodide Formed, VIS (Iopromide 150 mg I/mL, pH 7.4, agent:SBE7CD 1:0.05, autoclaved then VIS 72 h): 0.0671 wt % | Iodide Formed, UV (Iopromide 150 mg I/mL, pH 7.4, no SCD (1:0), autoclaved then UV 24 h): 0.148 wt % | Iodide Formed, VIS (Iopromide 150 mg I/mL, pH 7.4, no SCD (1:0), autoclaved then VIS 72 h): 0.0735 wt % | Iodide Formed, UV (Iopromide 240 mg I/mL, pH 7.4, agent:SBE7CD 1:0.05, autoclaved then UV 24 h): 0.113 wt % | Iodide Formed, VIS (Iopromide 240 mg I/mL, pH 7.4, agent:SBE7CD 1:0.05, autoclaved then VIS 72 h): 0.0413 wt % | Iodide Formed, UV (Iopromide 240 mg I/mL, pH 7.4, no SCD (1:0), autoclaved then UV 24 h): 0.129 wt % | Iodide Formed, VIS (Iopromide 240 mg I/mL, pH 7.4, no SCD (1:0), autoclaved then VIS 72 h): 0.0504 wt % | Iodide Formed, UV (Iopromide 300 mg I/mL, pH 7.4, agent:SBE7CD 1:0.05, autoclaved then UV 24 h): 0.102 wt % | Iodide Formed, VIS (Iopromide 300 mg I/mL, pH 7.4, agent:SBE7CD 1:0.05, autoclaved then VIS 72 h): 0.0426 wt % | Iodide Formed, UV (Iopromide 300 mg I/mL, pH 7.4, no SCD (1:0), autoclaved then UV 24 h): 0.110 wt % | Iodide Formed, VIS (Iopromide 300 mg I/mL, pH 7.4, no SCD (1:0), autoclaved then VIS 72 h): 0.0493 wt % | Iodide Formed, UV (Iopromide 370 mg I/mL, pH 7.4, agent:SBE7CD 1:0.05, autoclaved then UV 24 h): 0.0780 wt % | Iodide Formed, VIS (Iopromide 370 mg I/mL, pH 7.4, agent:SBE7CD 1:0.05, autoclaved then VIS 72 h): 0.0351 wt % | Iodide Formed, UV (Iopromide 370 mg I/mL, pH 7.4, no SCD (1:0), autoclaved then UV 24 h): 0.0989 wt % | Iodide Formed, VIS (Iopromide 370 mg I/mL, pH 7.4, no SCD (1:0), autoclaved then VIS 72 h): 0.0392 wt %
